Reference: patent US12466820B2, “Amino quinazoline derivatives as P2X3 inhibitors” (CHIESI FARMACEUTICI S.p.A., priority 2019, dated 2025)

Assays:
[1] = target: T1, h P2X3 (Homo sapiens, UniProt P56373); assay: In vitro electrophysiology assay for P2X3 (automated whole-cell patch clamp, Sophion Qube); type: cell-based; settings: range of activity
T1 sequence (P56373 1-397): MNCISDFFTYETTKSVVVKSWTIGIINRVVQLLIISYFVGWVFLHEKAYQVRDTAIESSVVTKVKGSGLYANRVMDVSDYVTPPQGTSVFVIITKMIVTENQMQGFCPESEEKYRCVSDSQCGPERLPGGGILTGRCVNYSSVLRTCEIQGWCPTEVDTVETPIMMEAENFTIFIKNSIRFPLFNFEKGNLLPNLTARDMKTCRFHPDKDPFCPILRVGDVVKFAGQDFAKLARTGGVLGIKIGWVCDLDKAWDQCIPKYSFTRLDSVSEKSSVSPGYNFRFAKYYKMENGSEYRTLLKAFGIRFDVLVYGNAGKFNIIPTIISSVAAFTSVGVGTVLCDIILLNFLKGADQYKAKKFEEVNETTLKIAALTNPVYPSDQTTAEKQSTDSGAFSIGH
Outline: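 Whole-cell automated patch clamp at room temperature, cells held at −60 mV; after two 800 nM α,β-MeATP baseline responses, antagonist preincubated 10 min then co-applied with 800 nM α,β-MeATP. Inhibition of peak current vs second agonist response; IC50 from 10-concentration curves, one concentration per cell.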

[2] = target: T2, h P2X2/3 (Homo sapiens, UniProt P56373+Q9UBL9); assay: In vitro electrophysiology assay for P2X2/3 (same protocol, 10 μM ATP as agonist); type: cell-based; settings: Table 7, range of activity
T2 sequence (P56373 1-397): T1 sequence (P56373 1-397)
T2 sequence (Q9UBL9 1-471): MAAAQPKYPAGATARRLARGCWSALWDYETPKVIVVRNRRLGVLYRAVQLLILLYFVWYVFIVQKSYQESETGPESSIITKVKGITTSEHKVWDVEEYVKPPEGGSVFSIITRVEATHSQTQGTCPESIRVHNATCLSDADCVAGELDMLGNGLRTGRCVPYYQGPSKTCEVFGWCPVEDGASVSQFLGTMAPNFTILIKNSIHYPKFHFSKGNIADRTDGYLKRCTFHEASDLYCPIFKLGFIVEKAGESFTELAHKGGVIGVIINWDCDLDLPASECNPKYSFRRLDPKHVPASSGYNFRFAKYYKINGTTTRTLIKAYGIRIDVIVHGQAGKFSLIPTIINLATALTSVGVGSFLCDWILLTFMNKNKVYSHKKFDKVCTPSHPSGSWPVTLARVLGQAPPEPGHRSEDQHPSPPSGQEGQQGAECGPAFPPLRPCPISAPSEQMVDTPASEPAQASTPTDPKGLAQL
Method: Cells expressing P2X3 receptors were grown according to standard practice and maintained at 37° C. in a 5% humidified CO2 atmosphere. The cells were seeded into T175 flask 2 days prior to the day of the assay and dissociated from the flasks using TrypLE when grown to confluence of 80-90%. The dissociated cells were resuspended in serum free media at a cell density of 3×10^6 cells/ml and loaded onto the Sophion Qube automated patch-clamp system. The extracellular assay buffer contained 145 mM NaCl, 4 mM KCl, 2 mM CaCl2), 1 mM MgCl2, 10 mM HEPES, and 10 mM glucose at pH 7.4. The intracellular assay solution contained 140 mM CsF, 10 mM NaCl, 10 mM EGTA, 10 mM HEPES at pH 7.2. Agonist stock solutions were prepared in H2O and diluted in bath solution prior to use. All antagonists were prepared as 10 mM stock solutions in DMSO and diluted in bath solution prior to use. All experiments were performed under the whole-cell patch clamp configuration at room temperature with 384 individual cells being voltage clamped at −60 mV simultaneously on the Sophion Qube instrument. Two baseline responses were established with the application of α,β-MeATP (800 nM), with the subsequent agonist applications being washed out using extracellular assay buffer containing 0.5 U/ml apyrase. Following the second agonist application, antagonist was incubated in the absence of α,β-MeATP for 10 minutes. After antagonist preincubation, 800 nM α,β-MeATP and antagonist were co-administered to determine the inhibitory effect of the antagonist. One concentration of an antagonist was assessed against a single cell, with different concentrations of the antagonist applied to other cells on the 384 recording substrate. The control P2X3 current amplitude was taken from the peak current amplitude from the second agonist response prior to preincubation with antagonist. The peak P2X3 current amplitude in the presence of antagonist was used to calculate the inhibitory effect at each concentration of the antagonist according to the following equation: […]
Concentration-response curves were constructed from ten different concentrations with each concentration of antagonist tested on at least two individual cells. The concentration of the antagonist to inhibit P2X3 current by 50% (IC50) was determined by fitting the data with the following equation: […]
Where ‘a’ is minimum response, ‘b’ is maximum response, ‘c’ is IC50 and ‘d’ is Hill slope.
Representative compound of the present invention have been also tested for P2X2/3 receptor.
The same assay protocol was used for the P2X2/3 assay as the P2X3 assay with two modifications: 1) 10 μM ATP was used as the agonist; and 2) the mean current amplitude was measured seven seconds after the application of agonist.

[3] = Table 6, inhibition of P2X3 current, agonist α,β-MeATP (800 nM)

Row | Structure (SMILES) | IC50 [1, 3] [nM] | IC50 ([1]; Table 7) [nM] | IC50 [2] [nM] | h P2X2/3 [2]
1 | Cc1cnc(-c2cc(OC3CCOCC3)c3ncnc(NC(C)c4ccc(C)nn4)c3c2)nc1 (single isomer, unassigned) [Example 28, N-[1-(6-methylpyridazin-3-yl)ethyl]-6-(5-methylpyrimidin-2-yl)-8-tetrahydropyran-4-yloxy-quinazolin-4-amine] | < 316 | < 316 | 316 to 3160 | 
2 | COc1cc(-c2ncc(C)cn2)cc2c(NC(C)c3ccc(C(F)(F)F)nn3)ncnc12 (single isomer, unassigned) [Example 121, 8-methoxy-6-(5-methylpyrimidin-2-yl)-N-[1-[6-(trifluoromethyl)pyridazin-3-yl]ethyl]quinazolin-4-amine] | 316 to 3160 | < 316 | 316 to 3160 | 
3 | COc1cc(-c2ncc(C)cn2)cc2c(NC(C)c3nc(C)no3)ncnc12 (single isomer, unassigned) [Example 123, 8-Methoxy-N-[1-(3-methyl-1,2,4-oxadiazol-5-yl)ethyl]-6-(5-methylpyrimidin-2-yl)quinazolin-4-amine] | < 316 | < 316 | 3160 to 31600 | 
4 | COc1cc(-c2ccc(C)cn2)cc2c(NC(C)c3nnc(C)s3)ncnc12 (single isomer, unassigned) [Example 127, 8-methoxy-6-(5-methyl-2-pyridyl)-N-[1-(5-methyl-1,3,4-thiadiazol-2-yl)ethyl]quinazolin-4-amine] | < 316 | < 316 | 3160 to 31600 | 
5 | COc1cc(-c2ncc(C)cn2)cc2c(NC(C)c3nnc(C)o3)ncnc12 (single isomer, unassigned) [Example 129] | < 316 | < 316 | 3160 to 31600 | 
6 | COc1cc(-c2ccc(C)cn2)cc2c(NC(C)c3nc(C)no3)ncnc12 (single isomer, unassigned) [Example 163, 8-Methoxy-N-[1-(3-methyl-1,2,4-oxadiazol-5-yl)ethyl]-6-(5-methyl-2-pyridyl)quinazolin-4-amine] | < 316 | < 316 | 3160 to 31600 | 
7 | COc1cc(-c2ncc(C)cn2)cc2c(NC(CO)c3nc(C)no3)ncnc12 (single isomer, unassigned) [Example 166] | < 316 | < 316 | 3160 to 31600 | 
8 | COc1cc(-c2ccc(F)cn2)cc2c(NC(C)c3nc(C)no3)ncnc12 (single isomer, unassigned) [Example 176, 6-(5-fluoropyridin-2-yl)-8-methoxy-N-(1-(3-methyl-1,2,4-oxadiazol-5-yl)ethyl)quinazolin-4-amine] | < 316 | < 316 | 3160 to 31600 | 
9 | COc1cc(-c2ccc(F)cn2)cc2c(NC(C)c3nc(C)no3)ncnc12 (centres unmarked) [Example 2, 6-(5-fluoropyridin-2-yl)-8-methoxy-N-(1-(3-methyl-1,2,4-oxadiazol-5-yl)ethyl)quinazolin-4-amine] | < 316 | < 316 | 3160 to 31600 | 
10 | COc1cc(-c2ncc(C)cn2)cc2c(N[C@H](C)c3noc(C)n3)ncnc12 [Example 7, 8-Methoxy-N-[(1R)-1-(5-methyl-1,2,4-oxadiazol-3-yl)ethyl]-6-(5-methylpyrimidin-2-yl)quinazolin-4-amine] | 316 to 3160 | 316 to 3160 | 3160 to 31600 | 
11 | C[C@@H](Nc1ncnc2c(-c3ccnnc3)cc(-c3ccc(F)cc3)cc12)c1cnc(C(F)(F)F)nc1 [Example 24, (R)-6-(4-fluorophenyl)-8-(pyridazin-4-yl)-N-(1-(2-(trifluoromethyl)pyrimidin-5-yl)ethyl)quinazolin-4-amine] | < 316 | < 316 | 3160 to 31600 | 

The next lines start with the values.

Row | IC50 [1, 3] [nM] | IC50 ([1]; Table 7) [nM] | IC50 [2] [nM] | h P2X2/3 [2] | Structure (SMILES)
12 | < 316 | < 316 | 3160 to 31600 |  | COc1cc(-c2ccc(F)cn2)cc2c(NC(C)c3ccc(C(F)(F)F)nn3)ncnc12 (single isomer, unassigned) [Example 169, 6-(5-fluoro-2-pyridyl)-8-methoxy-N-[1-[6-(trifluoromethyl)pyridazin-3-yl]ethyl]quinazolin-4-amine]
13 | 316 to 3160 | 316 to 3160 | 3160 to 31600 |  | COc1cc(-c2ccc(F)cn2)cc2c(NC(C)c3nnc(C)s3)ncnc12 (single isomer, unassigned) [Example 173, 6-(5-fluoropyridin-2-yl)-8-methoxy-N-(1-(5-methyl-1,3,4-thiadiazol-2-yl)ethyl)quinazolin-4-amine]
14 | < 316 | < 316 |  | + (+: 5.5<pIC50 h P2X3 or h P2X2/3>4.5) | COc1cc(-c2ccc(F)cn2)cc2c(NC(C)c3nnc(C)s3)ncnc12 (single isomer, unassigned) [Example 174, 6-(5-fluoropyridin-2-yl)-8-methoxy-N-(1-(5-methyl-1,3,4-thiadiazol-2-yl)ethyl)quinazolin-4-amine]
15 | 316 to 3160 | 316 to 3160 | 3160 to 31600 |  | COc1cc(-c2ccc(F)cc2)cc2c(NC(C)c3cccc(=O)[nH]3)ncnc12 (single isomer, unassigned) [Example 190, 6-(1-((6-(4-Fluorophenyl)-8-methoxyquinazolin-4-yl)amino)ethyl)pyridin-2(1H)-one]
16 | < 316 | < 316 | 316 to 3160 |  | COc1cc(-c2ccc(F)cc2)cc2c(NC(C)c3cccc(=O)[nH]3)ncnc12 (single isomer, unassigned) [Example 191, 6-(1-((6-(4-Fluorophenyl)-8-methoxyquinazolin-4-yl)amino)ethyl)pyridin-2(1H)-one]
17 | < 316 | < 316 | 316 to 3160 |  | COc1cc(-c2ccc(F)cc2)cc2c(NC(C)c3nc(-c4ccncc4)no3)ncnc12 (single isomer, unassigned) [Example 193, 6-(4-fluorophenyl)-8-methoxy-N-(1-(3-(pyridin-4-yl)-1,2,4-oxadiazol-5-yl)ethyl)quinazolin-4-amine]
18 | < 316 | < 316 | 316 to 3160 |  | COc1cc(-c2ncc(C)s2)cc2c(N[C@H](C)c3ccc(C)nn3)ncnc12 [Example 5, (R)-8-methoxy-N-(1-(6-methylpyridazin-3-yl)ethyl)-6-(5-methylthiazol-2-yl)quinazolin-4-amine]
19 |  |  | 316 to 3160 |  | CNS(=O)(=O)c1cc(-c2ccc(F)cc2)cc2c(N[C@H](C)c3ccc(C)nn3)ncnc12 [Example 19, (R)-6-(4-fluorophenyl)-N-methyl-4-((1-(6-methylpyridazin-3-yl)ethyl)amino)quinazoline-8-sulfonamide]
20 |  |  | 316 to 3160 |  | CNS(=O)(=O)c1cc(-c2ccc(F)cc2)cc2c(N[C@H](C)c3noc(C)n3)ncnc12 [Example 20, (R)-6-(4-fluorophenyl)-N-methyl-4-((1-(5-methyl-1,2,4-oxadiazol-3-yl)ethyl)amino)quinazoline-8-sulfonamide]
